Tests used:
S. marcescens = assay: Radial diffusion assay; format: cell-based, Serratia marcescens (ATCC, 13880); conditions: 5 µl of 500 µM per 3 mm well, 37 °C, mean ± SD
From the text: (§1) The microbial strains used in this study were Bacillus subtilis (ATCC, 11774), Candida albicans (TIMM, 1768), Enterococcus faecalis (ATCC, 33186), Escherichia coli (ATCC, 11775), Klebsiella pneumoniae (ATCC, 13883), Methicillin-resistant Staphylococcus aureus (ATCC, BAA-41), Pseudomonas aeruginosa (ATCC, 10145), Salmonella enterica (ATCC, 14028), Serratia marcescens (ATCC, 13880), Staphylococcus aureus (ATCC, 25923) and Vibrio parahaemolyticus (ATCC, 17802). All microbial strains were cultivated overnight at 37 °C and 200 rpm, then subcultured and incubated for 3 h under the same incubation conditions to obtain the mid-logarithmic growth phase. The cultivated cells were washed twice with 10 mM Tris–HCl containing 5 mM D-glucose at pH 7.4 and suspended in the same buffer to be used in different assays, as previously described.
(§2) The antimicrobial activity spectra of the selected cryptides were screened against all the mentioned microbial pathogens, except V. parahaemolyticus, by radial diffusion assay as previously described, with slight modifications. […] The plates were then incubated for 18 h, and the antimicrobial activities were measured in the absolute unit (AU), as previously described. […]
(§3) plate. The plates were then incubated for 12 h at 37 °C and antimicrobial activities were measured in the term of absolute unit (A.U). […]

V. parahaemolyticus = assay: Micro-broth dilution MIC / MBC; format: cell-based, Vibrio parahaemolyticus (ATCC, 17802); conditions: 37 °C
From the text: as §1
As a conclusive quantitative assessment, broth microtiter assay was used to determine the MIC values of each cryptide against B. subtilis, MRSA, S. enterica, P. aeruginosa, V. parahaemolyticus and C. albicans by following the guidelines of the Clinical and Laboratory Standards Institute (CLSI)[67], with slight modifications. […] MIC was detected as the lowest concentration of each cryptide that prevents the optically detectable microbial growth at OD = 600 nm.

C. albicans = assay: Radial diffusion assay; format: cell-based, Candida albicans (TIMM, 1768); conditions: 5 µl of 500 µM per 3 mm well, 37 °C, mean ± SD
From the text: as §1, §2, §3

RHCLRSKRPPNVCPH [AD4, cationic cryptide from P. vannamei precursor DN34505 (Pl-crustin 2), chemically synthesised]
Antimicrobial activity (inhibition zone) S. marcescens (S. marcescens): 0 A.U.
MBC (µM) V. parahaemolyticus (V. parahaemolyticus; 20 µl of wells without growth on agar, 18 h): > 50 µM
MIC (µM) V. parahaemolyticus (V. parahaemolyticus; micro-broth dilution, 3 h peptide treatment then MHB 18 h, OD 600 nm): > 50 µM
Antifungal activity (inhibition zone) C. albicans (C. albicans): 2.1 ± 0.5 A.U.
